Assay [1] concerns Rattus norvegicus. Kind of assay: In vivo concentration required for the reduction of mean arterial pressure in anesthetized obstructed male rat, administered intravenously at a dose of 50 nM/Kg. The format is functional, Artery.
Assay [2] can be described thus: Selectivity ratio for the reduction of mean arterial pressure to that of unstable […] in anesthetized obstructed male rat. Format: functional, Artery.
The test system of assay [3] is Rattus norvegicus. Kind of assay: In vivo concentration required for the inhibition of unstable contraction in anesthetized obstructed male rat, administered intravenously at a dose of 30 nM/Kg. The format is functional.
Assay [4] deals with Rattus norvegicus. Kind of assay: In vivo concentration required for the 10% reduction of mean arterial pressure in anesthetized obstructed male rat, administered intravenously at a dose of 50 nM/Kg. Format: functional, Artery.

In the case of `CCc1cc(C#N)ccc1Nc1c(N[C@H](C)C(C)(C)C)c(=O)c1=O`, in assay [1], the ED10 was 0.12 µM/kg. Moreover, the Selectivity ratio in assay [2] turned out to be 1.2. For the same compound, the ED35 in assay [3] amounted to 0.1 µM/kg.
With `CC(=O)Nc1c(C(O)(C(F)(F)F)C(F)(F)F)ccc2ccccc12`, in assay [4], the ED10 amounted to 0.05 µM/kg. For the same compound, in assay [2], the Selectivity ratio turned out to be 1.7. Besides, the ED35 in assay [3] was 0.03 µM/kg.
In turn, `C[C@](O)(C(=O)Nc1ccc(C(=O)c2ccccc2)cc1)C(F)(F)F` [ZD-6169] showed an ED10 in assay [1] of 1.5 µM/kg. Also, the Selectivity ratio in assay [2] amounted to 1.1. In addition, in assay [3], the ED35 was determined as 1.4 µM/kg.

(Values after ChEMBL document CHEMBL1136389, “Structure-activity relationship of a novel class of naphthyl amide KATP channel openers” (Bioorg Med Chem Lett, 2003).)
